Here are results for 22 compounds from patent publication US20160235727A1, “NOVEL PYRROLIDINE DERIVED BETA 3 ADRENERGIC RECEPTOR AGONISTS” (Merck Sharp & Dohme Corp., priority 2013, published 2016).

The target of this assay is T1, human β3-AR (Homo sapiens, UniProt P13945).
T1 construct: expressed in transfected cells; host or cells: CHO (Chinese hamster ovary) cells, stably transfected
The assay is described as follows: cAMP functional agonist assay (LANCE TR-FRET) in CHO cells expressing cloned human β3-AR. It is filed as cell-based. The following applies: for EC50: CHO cells stably expressing cloned human β3-adrenoceptor, cAMP release, read-out: Human β3-AR Agonism EC50; for Fold drop in potency vs. 2-chloropyridine analog: EC50 of comparative example divided by EC50 of corresponding 2-chloropyridine compound; for Human β3-AR Agonist Activity (%): percent maximum activation relative to isoproterenol.

T1 sequence (P13945 whole entry): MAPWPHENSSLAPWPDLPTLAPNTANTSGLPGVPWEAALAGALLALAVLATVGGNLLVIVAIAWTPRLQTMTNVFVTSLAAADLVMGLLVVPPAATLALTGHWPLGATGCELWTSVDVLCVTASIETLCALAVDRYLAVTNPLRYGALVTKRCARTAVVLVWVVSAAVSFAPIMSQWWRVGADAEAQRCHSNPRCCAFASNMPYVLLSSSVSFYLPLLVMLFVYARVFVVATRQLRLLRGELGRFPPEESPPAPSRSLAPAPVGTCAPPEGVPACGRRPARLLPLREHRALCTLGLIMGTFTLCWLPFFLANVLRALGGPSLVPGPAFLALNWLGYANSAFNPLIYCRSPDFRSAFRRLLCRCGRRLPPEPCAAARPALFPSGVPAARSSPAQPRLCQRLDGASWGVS

Turning to `CN(Cc1cncc(C(C)(C)O)c1)C(=O)c1ccc(C[C@@H]2CC[C@H]([C@H](O)c3ccccc3)N2)cc1` [Example 32-B, 4-(((2S,5R)-5-((R)-hydroxy(phenyl)methyl)pyrrolidin-2-yl)methyl)-N-((5-(2-hydroxypropan-2-yl)pyridin-3-yl)methyl)-N-methylbenzamide], the EC50 (in general, the concentration that produces a half-maximal response) is 22 nM; the “Fold drop in potency vs. 2-chloropyridine analog” value worked out at 1.8 fold; the “Human β3-AR Agonist Activity (%)” value is reported as 109%.
Regarding `COC(C)CN(C)C(=O)c1ccc(C[C@@H]2CC[C@H]([C@H](O)c3ccccc3)N2)cc1` (mixture of isomers) [Example 2-B, 4-(((2S,5R)-5-((R)-hydroxy(phenyl)methyl)pyrrolidin-2-yl)methyl)-N-(2-methoxypropyl)-N-methylbenzamide], the 50% effective concentration (EC50) turned out to be 168 nM, the “Fold drop in potency vs. 2-chloropyridine analog” value is 1.4 fold and the “Human β3-AR Agonist Activity (%)” value came out at 94%.
As for `C[C@H](c1nn(C)c(=O)o1)N(C)C(=O)c1ccc(C[C@@H]2CC[C@H]([C@H](O)c3ccccc3)N2)cc1` [Example 18-B, 4-(((2S,5R)-5-((R)-hydroxy(phenyl)methyl)pyrrolidin-2-yl)methyl)-N-methyl-N—((R)-1-(4-methyl-5-oxo-4,5-dihydro-1,3,4-oxadiazol-2-yl)ethyl)benzamide], the EC50 was 68 nM, the “Fold drop in potency vs. 2-chloropyridine analog” value amounted to 8.6 fold and the “Human β3-AR Agonist Activity (%)” value amounted to 105%.
The like results for `CN(Cc1ccc(=O)[nH]c1)C(=O)c1ccc(C[C@@H]2CC[C@H]([C@H](O)c3ccc(F)cc3)N2)cc1` [Example 28-F, 4-(((2S,5R)-5-((R)-(4-fluorophenyl)(hydroxy)methyl)pyrrolidin-2-yl)methyl)-N-methyl-N-((6-oxo-1,6-dihydropyridin-3-yl)methyl)benzamide] were, in that order, 732 nM, 4.2 fold and 88%.
As for `COC(=O)c1cncc(CN(C)C(=O)c2ccc(C[C@@H]3CC[C@H]([C@H](O)c4ccc(Cl)nc4)N3)cc2)c1` [Example 34-A, Methyl 5-((4-(((2S,5R)-5-((R)-(6-chloropyridin-3-yl)(hydroxy)methyl)pyrrolidin-2-yl)methyl)-N-methylbenzamido)methyl)nicotinate], the EC50 amounted to 6 nM and the “Human β3-AR Agonist Activity (%)” value is 90%.
Turning to `CN(Cc1cccnc1F)C(=O)c1ccc(C[C@@H]2CC[C@H]([C@H](O)c3cccnc3)N2)cc1` [Example 26-H, N-((2-fluoropyridin-3-yl)methyl)-4-(((2S,5R)-5-((R)-hydroxy(pyridin-3-yl)methyl)pyrrolidin-2-yl)methyl)-N-methylbenzamide], the EC50 was determined as 397 nM, the “Fold drop in potency vs. 2-chloropyridine analog” value is 11.3 fold and the “Human β3-AR Agonist Activity (%)” value is 96%.
As for `CN(Cc1ccc(Cl)nc1)C(=O)c1ccc(C[C@@H]2CC[C@H]([C@H](O)c3ccccc3)N2)cc1` [Example 30-B, N-((6-chloropyridin-3-yl)methyl)-4-(((2S,5R)-5-((R)-hydroxy(phenyl)methyl)pyrrolidin-2-yl)methyl)-N-methylbenzamide], the EC50 was 28 nM, the “Fold drop in potency vs. 2-chloropyridine analog” value is reported as 8.9 fold and the “Human β3-AR Agonist Activity (%)” value turned out to be 100%.
Take `CN(C(=O)c1ccc(C[C@@H]2CC[C@H]([C@H](O)c3ccc(Cl)nc3)N2)cc1)C1CCc2ncccc21` (stereo partly drawn) [Example 24-A, 4-(((2S,5R)-5-((R)-(6-chloropyridin-3-yl)(hydroxy)methyl)pyrrolidin-2-yl)methyl)-N-(6,7-dihydro-5H-cyclopenta[b]pyridin-5-yl)-N-methylbenzamide]: the half-maximal effective concentration (EC50) turned out to be 42 nM and the “Human β3-AR Agonist Activity (%)” value is recorded as 98%.
Taken in the same sequence, the figures for `CN(Cc1cncc(C#N)c1)C(=O)c1ccc(C[C@@H]2CC[C@H]([C@H](O)c3ccc(Cl)nc3)N2)cc1` [Example 35-A, 4-(((2S,5R)-5-((R)-(6-chloropyridin-3-yl)(hydroxy)methyl)pyrrolidin-2-yl)methyl)-N-((5-cyanopyridin-3-yl)methyl)-N-methylbenzamide] were 17 nM and 91%.
Take `CC(C)c1cc(CN(C)C(=O)c2ccc(C[C@@H]3CC[C@H]([C@H](O)c4ccccc4)N3)cc2)n[nH]1` [Example 7-B, 4-(((2S,5R)-5-((R)-hydroxy(phenyl)methyl)pyrrolidin-2-yl)methyl)-N-((5-isopropyl-1H-pyrazol-3-yl)methyl)-N-methylbenzamide]: the concentration giving a half-maximal response (EC50) is 188 nM, the “Fold drop in potency vs. 2-chloropyridine analog” value amounted to 3.2 fold and the “Human β3-AR Agonist Activity (%)” value turned out to be 110%.
Consider `CN(Cc1cc(C2CC2)[nH]n1)C(=O)c1ccc(C[C@@H]2CC[C@H]([C@H](O)c3ccc(Cl)nc3)N2)cc1` [Example 8-A, 4-(((2S,5R)-5-((R)-(6-chloropyridin-3-yl)(hydroxy)methyl)pyrrolidin-2-yl)methyl)-N-((5-cyclopropyl-1H-pyrazol-3-yl)methyl)-N-methylbenzamide], for which the concentration for a half-maximal effect (EC50) stood at 20 nM and the “Human β3-AR Agonist Activity (%)” value came out at 103%.
Regarding `Cc1nc(-c2ccc([C@@H](O)[C@H]3CC[C@@H](Cc4ccc(C(=O)N(C)Cc5cccnc5)cc4)N3)cn2)no1` [Example 21-L, 4-(((2S,5R)-5-((R)-hydroxy(6-(5-methyl-1,2,4-oxadiazol-3-yl)pyridin-3-yl)methyl)pyrrolidin-2-yl)methyl)-N-methyl-N-(pyridin-3-ylmethyl)benzamide], the EC50 is no less than 10000 nM, the “Fold drop in potency vs. 2-chloropyridine analog” value is recorded as greater than 2300 fold and the “Human β3-AR Agonist Activity (%)” value was 3%.
As to `CN(Cc1n[nH]c2c1CCCC2)C(=O)c1ccc(C[C@@H]2CC[C@H]([C@H](O)c3cccnc3)N2)cc1` [Example 14-H, 4-(((2S,5R)-5-((R)-hydroxy(pyridin-3-yl)methyl)pyrrolidin-2-yl)methyl)-N-methyl-N-((4,5,6,7-tetrahydro-1H-indazol-3-yl)methyl)benzamide], the half-maximal effective concentration (EC50) was 55 nM, the “Fold drop in potency vs. 2-chloropyridine analog” value came out at 19.5 fold and the “Human β3-AR Agonist Activity (%)” value came out at 101%.
The like results for `CN(Cc1cccnc1)C(=O)c1ccc(C[C@@H]2CC[C@H]([C@H](O)c3cccc(F)c3)N2)cc1` [Example 21-C, 4-(((2S,5R)-5-((R)-(3-fluorophenyl)(hydroxy)methyl)pyrrolidin-2-yl)methyl)-N-methyl-N-(pyridin-3-ylmethyl)benzamide] were, in that order, 10 nM, 2.3 fold and 100%.
Turning to `CN(Cc1cc(C(F)(F)F)[nH]n1)C(=O)c1ccc(C[C@@H]2CC[C@H]([C@H](O)c3ccc(Cl)nc3)N2)cc1` [Example 10-A, 4-(((2S,5R)-5-((R)-(6-chloropyridin-3-yl)(hydroxy)methyl)pyrrolidin-2-yl)methyl)-N-methyl-N-((5-(trifluoromethyl)-1H-pyrazol-3-yl)methyl)benzamide], the EC50 turned out to be 2 nM and the “Human β3-AR Agonist Activity (%)” value was 96%.
With `CCN(Cc1cccnc1)C(=O)c1ccc(C[C@@H]2CC[C@H]([C@H](O)c3ccc(Cl)nc3)N2)cc1` [Example 22-A, 4-(((2S,5R)-5-((R)-(6-chloropyridin-3-yl)(hydroxy)methyl)pyrrolidin-2-yl)methyl)-N-ethyl-N-(pyridin-3-ylmethyl)benzamide], the EC50 was 5 nM and the “Human β3-AR Agonist Activity (%)” value amounted to 62%.
In the case of `CN(Cc1cncc(F)c1)C(=O)c1ccc(C[C@@H]2CC[C@H]([C@H](O)c3ccc(Cl)nc3)N2)cc1` [Example 38-A, 4-(((2S,5R)-5-((R)-(6-chloropyridin-3-yl)(hydroxy)methyl)pyrrolidin-2-yl)methyl)-N-((5-fluoropyridin-3-yl)methyl)-N-methylbenzamide], the EC50 is 8 nM and the “Human β3-AR Agonist Activity (%)” value is 58%.
Taken in the same sequence, the figures for `CCC(c1cc(C)n[nH]1)N(C)C(=O)c1ccc(C[C@@H]2CC[C@H]([C@H](O)c3ccc(Cl)nc3)N2)cc1` (stereo partly drawn) [Example 5-A, 4-(((2S,5R)-5-((R)-(6-chloropyridin-3-yl)(hydroxy)methyl)pyrrolidin-2-yl)methyl)-N-methyl-N-(1-(5-methyl-1H-pyrazol-3-yl)propyl)benzamide] were 2 nM and 102%.
Consider `Cc1cc(CN(C)C(=O)c2ccc(C[C@@H]3CC[C@H]([C@H](O)c4ccccc4)N3)cc2)n[nH]1` [Example 4-B, 4-(((2S,5R)-5-((R)-hydroxy(phenyl)methyl)pyrrolidin-2-yl)methyl)-N-methyl-N-((5-methyl-1H-pyrazol-3-yl)methyl)benzamide], for which the EC50 came to 14 nM, the “Fold drop in potency vs. 2-chloropyridine analog” value came to 2.6 fold and the “Human β3-AR Agonist Activity (%)” value came to 108%.
With `CN(Cc1nc2ccccc2c(=O)n1C)C(=O)c1ccc(C[C@@H]2CC[C@H]([C@H](O)c3ccc(Cl)nc3)N2)cc1` [Example 45-A, 4-(((2S,5R)-5-((R)-(6-chloropyridin-3-yl)(hydroxy)methyl)pyrrolidin-2-yl)methyl)-N-methyl-N-((3-methyl-4-oxo-3,4-dihydroquinazolin-2-yl)methyl)benzamide], the 50% effective concentration (EC50) was found to be 25 nM and the “Human β3-AR Agonist Activity (%)” value came to 90%.
Regarding `CN(Cc1cncc(C(=O)O)c1)C(=O)c1ccc(C[C@@H]2CC[C@H]([C@H](O)c3ccc(Cl)nc3)N2)cc1` [Example 33-A, 5-((4-(((2S,5R)-5-((R)-(6-chloropyridin-3-yl)(hydroxy)methyl)pyrrolidin-2-yl)methyl)-N-methylbenzamido)methyl)nicotinic acid], the half-maximal effective concentration (EC50) was determined as 44 nM and the “Human β3-AR Agonist Activity (%)” value turned out to be 101%.
Consider `CN(Cc1cccc(=O)[nH]1)C(=O)c1ccc(C[C@@H]2CC[C@H]([C@H](O)c3ccccc3)N2)cc1` [Example 20-B, 4-(((2S,5R)-5-((R)-hydroxy(phenyl)methyl)pyrrolidin-2-yl)methyl)-N-methyl-N-((6-oxo-1,6-dihydropyridin-2-yl)methyl)benzamide], for which the concentration for a half-maximal effect (EC50) worked out at 9 nM, the “Fold drop in potency vs. 2-chloropyridine analog” value was found to be 2.1 fold and the “Human β3-AR Agonist Activity (%)” value worked out at 103%.
